Assay results published in patent US20130252930A1 (BIOMARIN PHARMACEUTICAL INC., priority 2010, published 2013).
Like-named read-outs stand apart in the source and are kept apart here.

How the values were obtained:
[1] = target: T1, Cyp21 enzyme (Human HEK 293-Cyp21 stable transfected cells) (Homo sapiens, UniProt P08686); experiment: CYP21-HEK293 enzymatic assay (% inhibition at 100 nM) (Biological Example 10); format: cell-based; conditions: HEK 293-Cyp21 cells
T1 construct: expressed in transfected cells
T1 sequence (P08686 1-495): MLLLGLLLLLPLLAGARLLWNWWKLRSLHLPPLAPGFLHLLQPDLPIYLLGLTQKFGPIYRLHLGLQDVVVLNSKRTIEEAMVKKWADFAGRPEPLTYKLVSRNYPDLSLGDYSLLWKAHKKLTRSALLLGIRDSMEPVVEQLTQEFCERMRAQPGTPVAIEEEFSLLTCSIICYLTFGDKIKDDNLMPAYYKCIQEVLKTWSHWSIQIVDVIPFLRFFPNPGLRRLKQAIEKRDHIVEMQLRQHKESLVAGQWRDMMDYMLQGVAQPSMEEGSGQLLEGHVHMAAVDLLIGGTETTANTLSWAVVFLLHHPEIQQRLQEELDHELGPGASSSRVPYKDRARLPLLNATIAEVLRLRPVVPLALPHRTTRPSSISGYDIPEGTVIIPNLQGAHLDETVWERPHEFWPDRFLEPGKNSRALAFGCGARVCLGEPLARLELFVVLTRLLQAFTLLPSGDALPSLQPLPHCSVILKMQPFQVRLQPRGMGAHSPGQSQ
Description: Proceeding using methods similar to those described in Biological Example 11, the percent inhibition at 100 nM was measured.
This assay was used to determine compound activity against Cyp21 enzyme. Human HEK 293-Cyp21 stable transfected cells (maintained in complete growth media DMEM+10% FBS, supplemented with 125 ug/mL Hygromycin) were seeded in a 96-well plate at 20,000 cells/well/100 uL in DMEM plus 10% FBS and allowed to attach overnight. The next day, 20 μL medium was carefully removed and 10 μL of 10× pre-made compounds in DMEM+10% FBS+10% methanol was transferred to the wells to final concentrations of 1000, 100, 10, 1, or 0.1 nM. Mock treatment was 1% methanol in growth media and the cells were left at 37° C., 5% CO2 for 5 hr. After the incubation, 10 μL of substrate progesterone (Sigma) was added to the wells to make a final concentration of 10 μM. The cells were incubated the cells at 37° C. for 20 hr. At the end of incubation, 90 μL of conditioned media was removed to measure DOC level by ELISA.
Preparation of the DOC ELISA: 100 μL of coating buffer (0.025M PBS pH 7.4) containing 200 ng/mL DOC-3-carboxymethyloxime-BSA (Steraloids. inc, Cat#3469-000) was added to each well of a 96-well plate and incubated overnight at 4° C. The next day, the plates were washed twice with 250 μl of wash solution (0.015M PBS pH 7.4 containing 0.05% Tween 20). After being washed, the wells were blocked with 250 μL blocking buffer (3% BSA in 0.025M PBS, pH 7.4) at 37° C. for 2 h. The plates were washed again 3 times as before, and then 90 μL of sample /standards (prepared in complete growth media) was added into the appropriate wells followed by 10 μL of antibody solution (1:450 rabbit anti-DOC in 0.6% BSA/PBS). The plates were incubated at room temperature for 2 h on a shaker. The contents of the wells were removed and the plate was washed 4 times. After the final wash, 100 μL of secondary antibody (1:12000 HRP-goat-anti-rabbit IgG conjugate 0.6% BSA/PBS) was added into each well. The plate was incubated at 30° C. for 45 min. The plate was washed again 4 times and 100 μL of TMB substrate solution was added to each well. The plate was incubated at room temperature for 10 min. 100 μL of stop solution was added to each well and the optical density was read at 450 nm.
The mean absorbance value for each sample was used to determine the corresponding concentration from the standard curve. Data was analyzed with “log(antagonist) vs response variable slope” under “non-linear regression analysis” using Prism5 software.

[2] = target: T2, CYP17 (human testicular microsome) (Homo sapiens, UniProt P05093); experiment: CYP17 enzymatic assay (% inhibition at 10 nM), version 1 (Biological Example 5); format: biochemical
T2 construct: using microsomal fraction from human testis (Celsis Cat #S00110) as the enzyme source; tissue Celsis S00110; host or cells: human testis microsomal fraction
T2 sequence (P05093 1-508): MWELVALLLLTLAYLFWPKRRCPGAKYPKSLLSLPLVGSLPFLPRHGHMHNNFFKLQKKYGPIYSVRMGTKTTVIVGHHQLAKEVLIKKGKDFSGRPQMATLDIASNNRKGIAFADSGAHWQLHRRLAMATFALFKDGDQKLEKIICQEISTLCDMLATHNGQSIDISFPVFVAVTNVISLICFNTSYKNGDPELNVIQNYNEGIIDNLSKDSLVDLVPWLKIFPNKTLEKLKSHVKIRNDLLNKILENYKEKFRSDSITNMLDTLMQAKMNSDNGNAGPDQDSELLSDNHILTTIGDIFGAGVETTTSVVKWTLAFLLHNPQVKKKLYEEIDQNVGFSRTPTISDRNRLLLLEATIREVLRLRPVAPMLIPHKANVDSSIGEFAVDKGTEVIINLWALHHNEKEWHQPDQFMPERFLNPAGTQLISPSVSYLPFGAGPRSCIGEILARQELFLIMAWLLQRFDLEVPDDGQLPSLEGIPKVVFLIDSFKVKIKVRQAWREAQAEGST

[3] = tested on: rat Cyp11B enzyme (rat adrenal mitochondria); experiment: CYP11B enzymatic assay (% inhibition at 100 nM) (Biological Example 9); format: biochemical; conditions: for Biological Example No. 9: CYP11B percent inhibition at 100 nM: 100 nM compound, cortisol by ELISA; for CYP11B enzymatic assay % inhibition at 100 nM (Biological Example No. 9): compound at 100 nM
Outline: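 Sprague Dawley rat adrenal mitochondria were incubated with compound at 100 nM, 0.5 mM NADPH and 0.1 μM 11-deoxycortisol (pH 7.4 Tris buffer) for 60 min at 37 °C. Cortisol was measured by ELISA and corrected by subtracting the no-NADPH background. % inhibition is relative to the no-compound reaction.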

[4] = target: T2, CYP17 (human testicular microsome); experiment: CYP17 enzymatic assay (IC50) (Biological Example 4); format: biochemical; conditions: human testicular microsome
[5] = Human liver microsome stability assay (Biological Example 8b); conditions: liver microsomes, pH 7.4
[6] = target: T2, CYP17 (human testicular microsome); experiment: CYP17 enzymatic assay (% inhibition at 1 nM) (Biological Example 12); format: biochemical; conditions: compound at 1 nM, read-out: CYP17 enzymatic assay % inhibition at 1 nM (Biological Example No. 12)
[7] = target: T1, Cyp21 enzyme (Human HEK 293-Cyp21 stable transfected cells); experiment: CYP21-HEK293 enzymatic assay (IC50) (Biological Example 11); format: cell-based; conditions: HEK 293-Cyp21 cells; read-out: CYP21-HEK293 enzymatic assay IC50 (Biological Example No. 11)
[8] = 100 nM compound, read-out: Biological Example No. 10: CYP21-HEK293 percent inhibition at 100 nM
[9] = 10 nM compound, DHEA by ELISA, read-out: Biological Example No. 5: CYP17 percent inhibition at 10 nM (version 1)
[10] = DHEA by ELISA, read-out: Biological Example No. 4: CYP17 enzymatic assay IC50
[11] = compound at 100 nM, read-out: CYP21-HEK293 enzymatic assay % inhibition at 100 nM (Biological Example No. 10)
[12] = read-out: CYP17 enzymatic assay IC50 (Biological Example No. 4)

SMILES | inhibition at 0.1 µM [1, 8] [%] | inhibition at 0.01 µM [2, 9] [%] | half-life at 1 μM [5] [min] | inhibition at 0.001 µM [6] [%] | inhibition at 0.1 µM [1, 11] [%] | IC50 [4, 12] [nM] | other results
C[C@]12CCCC(=O)CC1=CCC1[C@@H]2CC[C@]2(C)C(n3ccnc3)=CC[C@@H]12 (stereo partly drawn) [Compound 107, (3aS,10aR,10bS,12aS)-1-(1H-imidazol-1-yl)-10a,12a-dimethyl-3,3a,3b,4,8,9,10,10a,10b,11,12,12a-dodecahydrocyclohepta[a]cyclopenta[f]naphthalen-7(6H)-one] | ≥ 30 | > 80 | 1 to 50 |  |  |  | IC50 [4, 10]: < 11 nM
CN1CC[C@@]2(C)C(=CC1=O)CC[C@H]1C3=CC=C(c4cnccn4)[C@@]3(C)CC[C@@H]12 [Compound 184, (5aR,7aS)-3,5a,7a-trimethyl-8-(pyrazin-2-yl)-3,4,5,5a,5b,6,7,7a,11,12-decahydrocyclopenta[5,6]naphtho[1,2-d]azepin-2(10bH)-one] |  |  |  | 10 to 50 | ≥ 30 | < 11 | inhibition at 0.01 µM ([2]; compound at 10 nM, read-out: CYP17 enzymatic assay % inhibition at 10 nM (Biological Example No. 5)): > 80%
COC(=O)NC1CC[C@@]2(C)C(=CCC3C2CC[C@]2(C)C(n4ccnc4)=CCC32)C1 (stereo partly drawn) [Compound 239, methyl ((10R,13S)-17-(1H-imidazol-1-yl)-10,13-dimethyl-2,3,4,7,8,9,10,11,12,13,14,15-dodecahydro-1H-cyclopenta[a]phenanthren-3-yl)carbamate] |  |  |  | > 50 | < 30 | < 11 | CYP11B enzymatic assay % inhibition at 100 nM (Biological Example No. 9) [3]: T (T means the compound had a percent inhibition of less than 32% when tested at 100 nM)
CC(=O)N[C@@H]1CC[C@@]2(C)C(=CC[C@H]3C4=CC=C(n5ccnc5)[C@@]4(C)CC[C@@H]32)C1 [Compound 245, N-((3R,10R,13S)-17-(1H-imidazol-1-yl)-10,13-dimethyl-2,3,4,7,8,9,10,11,12,13-decahydro-1H-cyclopenta[a]phenanthren-3-yl)acetamide] |  |  |  | 10 to 50 | < 30 |  | CYP11B enzymatic assay % inhibition at 100 nM (Biological Example No. 9) [3]: T (T means the compound had a percent inhibition of less than 32% when tested at 100 nM)
C[C@]12CC[C@H]3[C@@H](CC=C4C[C@H](NC(=O)C5CC5)CC[C@@]43C)C1=CC=C2n1ccnc1 [Compound 246, N-((3R,10R,13S)-17-(1H-imidazol-1-yl)-10,13-dimethyl-2,3,4,7,8,9,10,11,12,13-decahydro-1H-cyclopenta[a]phenanthren-3-yl)cyclopropanecarboxamide] |  |  |  | 10 to 50 | < 30 |  | CYP11B enzymatic assay % inhibition at 100 nM (Biological Example No. 9) [3]: U (U means the compound had a percent inhibition of greater than or equal to 32%)
CON=C1C=C2CCC3C4=CC=C(c5cccnc5)[C@@]4(C)CCC3[C@@]2(C)CC1 (stereo partly drawn) [Compound 287, (10R,13S)-10,13-dimethyl-17-(pyridin-3-yl)-6,7,8,9,10,11,12,13-octahydro-1H-cyclopenta[a]phenanthren-3(2H)-one O-methyl oxime] |  |  | > 50 | 10 to 50 | ≥ 30 | < 11 | IC50 [7]: > 100 nM
C[C@]12CCC3C(CCC4=CC(=NO)CC[C@@]43C)C1=CC=C2c1cccnc1 (stereo partly drawn) [Compound 288, (10R,13S)-10,13-dimethyl-17-(pyridin-3-yl)-6,7,8,9,10,11,12,13-octahydro-1H-cyclopenta[a]phenanthren-3(2H)-one oxime] |  |  | 1 to 50 | > 50 | < 30 | < 11 | 

Further lines, with some results ahead:

inhibition at 0.1 µM [1, 8] [%] | inhibition at 0.01 µM [2, 9] [%] | half-life at 1 μM [5] [min] | SMILES | inhibition at 0.001 µM [6] [%] | inhibition at 0.1 µM [1, 11] [%] | IC50 [4, 12] [nM] | other results
< 30 | 1 to 50 |  | C[C@]12CC[C@H]3[C@@H](CCN4CCCCC[C@]34C)[C@@H]1CC=C2c1cccnc1 [Compound 44, (11aR,13aS)-11a,13a-dimethyl-1-(pyridin-3-yl)-3a,3b,4,5,7,8,9,10,11,11a,11b,12,13,13a-tetradecahydro-3H-azepino[2,1-a]cyclopenta[f]isoquinoline] |  |  |  | Biological Example No. 9: CYP11B percent inhibition at 100 nM [3]: na (“na” means the compound was not active under the conditions tested)
≥ 30 | > 80 | 1 to 50 | C[C@]12CCCC(=O)CC1=CC[C@@H]1[C@@H]2CC[C@]2(C)C(c3cnccn3)=CC[C@@H]12 [Compound 142, 10a,12a-dimethyl-1-(pyrazin-2-yl)-3,3a,3b,4,8,9,10,10a,10b,11,12,12a-dodecahydrocyclohepta[a]cyclopenta[f]naphthalen-7(6H)-one] |  |  |  | 
< 30 |  |  | C[C@]12CCC(=O)NC=C1CCC1C2CC[C@]2(C)C(n3cnnn3)=CCC12 (stereo partly drawn) [Compound 156, (5aR,7aS)-5a,7a-dimethyl-8-(1H-tetrazol-1-yl)-4,5,5a,5b,6,7,7a,10,10a,10b,11,12-dodecahydrocyclopenta[5,6]naphtho[2,1-c]azepin-3(2H)-one] |  |  |  | Biological Example No. 9: CYP11B percent inhibition at 100 nM [3]: U (U means the compound had a percent inhibition of greater than or equal to 32%)
≥ 30 | > 80 | 1 to 50 | COc1cncc(C2=CC=C3[C@@H]4CCC5=CC(=O)N(C)CC[C@]5(C)[C@H]4CC[C@]23C)c1 [Compound 159] |  |  |  | IC50 [4, 10]: < 11 nM
